Values belong to the molecule of their own block, whether it stands above or below them.
SMILES: CCCN(CCC)c1c(CC)nn2c(-c3ccc(Cl)cc3Cl)cccc12.O=C(O)/C=C\C(=O)O [Example 11, 7-(2,4-Dichlorophenyl)-2-ethyl-N,N-dipropylpyrazolo[1,5-a]pyridin-3-amine maleic acid salt]
- melting point: 106 to 112 °C

SMILES: CCc1nn2c(-c3ccc(OC)cc3Cl)cccc2c1N(CCF)CCOC [Example 25, 7-(2-Chloro-4-methoxyphenyl)-2-ethyl-N-(2-fluoroethyl)-N-(2-methoxyethyl)pyrazolo[1,5-a]pyridin-3-amine]
- melting point: 45.8 to 52.8 °C

SMILES: COc1ccc(-c2cccc3c(C(C)C)c(C)nn23)c(Cl)c1 [Example 40, 7-(2-Chloro-4-methoxyphenyl)-3-isopropyl-2-methylpyrazolo[1,5-a]pyridine]
- melting point: 111.9 to 114.9 °C

More lines, now with the values ahead:

- melting point: 76 to 79 °C
SMILES: CCCN(CCC)c1c(CC)nn2c(-c3ccc(OC)cc3C)cccc12 [Example 12, 2-Ethyl-7-(4-methoxy-2-methylphenyl)-N,N-dipropylpyrazolo[1,5-a]pyridin-3-amine]

- melting point: 73.6 to 76 °C
SMILES: CCCN(CCC)c1c(CC)nn2c(-c3ccc(OC)cc3Cl)cccc12 [Example 13, 7-(2-Chloro-4-methoxyphenyl)-2-ethyl-N,N-dipropylpyrazolo[1,5-a]pyridin-3-amine]

- melting point: 69.1 to 79.8 °C
SMILES: CCCN(CCC)c1c(CC)nn2c(-c3ccc(N(C)C)cc3C(F)(F)F)cccc12 [Example 14, 7-[4-(Dimethylamino)-2-(trifluoromethyl)phenyl]-2-ethyl-N,N-dipropylpyrazolo[1,5-a]pyridin-3-amine]

- melting point: 132.8 to 134.3 °C
SMILES: CCCN(CCC)c1c(CC)nn2c(-c3ccc(N(C)C)cc3Cl)cccc12 [Example 16, 7-[2-Chloro-4-(dimethylamino)phenyl]-2-ethyl-N,N-dipropylpyrazolo[1,5-a]pyridin-3-amine]

- melting point: 98.5 to 100.3 °C
SMILES: CCCN(CCC)c1c(CC)nn2c(-c3cnc(N(C)C)cc3C)cccc12 [Example 18, 7-[6-(Dimethylamino)-4-methylpyridin-3-yl]-2-ethyl-N,N-dipropylpyrazolo[1,5-a]pyridin-3-amine]

From US7151109B2, “Pyrazolo[1,5-a]pyridine derivatives and their use as neurotransmitter modulators” (Pharmacia & Upjohn Company LLC, priority 2002, dated 2006)
